From the supplement of paper PMC11208160

Experiment: recombinant barcode read abundance after kanamycin selection (control-corrected) (log10(CPM+1)); higher = more efficient recombination; sequences stand for … in AGTGCAGAGAAAATCGGCCAGTTTTCTCTGCCTGCAGTCCGCATGCCGT…ATTTATGCAGCGGACTGCCTTTCTCCCAAAGTGATAAACCGGACAGTATCATGGACCGGTTTTCCCGGTAATCCGTATTTGCAAGGTTGGTTTCACT; site = the 11-nt target
Description: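 Same pooled E. coli target screen (IS621 bridge recombinase, kanamycin selection, control-corrected CPM, mean of 2 biological replicates). Here the two core-binding nucleotides of the LTG and RTG of the bridge RNA target-binding loop are mutated. Target and donor CT cores are held constant, and the other 9 guide positions match the target. The target is read from the library oligo sequence. Molecule = full bridge RNA written as DNA: nt 1-80 from the library oligo, rest WT scaffold.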

| Sequence | recombinant barcode read abundance (log10) |
| --- | --- |
| AGGCGGGTGTGGGTTCTAACCTGTTGCGGCA [AGGCGGGCTCC_LTGcore_TG_RTGcore_TG] (site AGGCGGGCTCC) (LTG core: TG, RTG core: TG) | 0.0694 |
| AGGCGGTACTGGGTTCTAACCTGTTGCTTGT [AGGCGGTCTAA_LTGcore_AC_RTGcore_AC] (site AGGCGGTCTAA) (LTG core: AC, RTG core: AC) | 0.166 |
| AGGCGGTCATGGGTTCTAACCTGTTGCTTAG [AGGCGGTCTAA_LTGcore_CA_RTGcore_CT] (site AGGCGGTCTAA) (LTG core: CA, RTG core: CT) | 0.322 |
| AGGCGGTCGTGGGTTCTAACCTGTTGCTTCG [AGGCGGTCTAA_LTGcore_CG_RTGcore_CG] (site AGGCGGTCTAA) (LTG core: CG, RTG core: CG) | 0.228 |
| AGGCGGTCTTGGGTTCTAACCTGTTGCTTAA [AGGCGGTCTAA_LTGcore_CT_RTGcore_TT] (site AGGCGGTCTAA) (LTG core: CT, RTG core: TT) | 0.0737 |
| AGGCGGTCTTGGGTTCTAACCTGTTGCTTGA [AGGCGGTCTAA_LTGcore_CT_RTGcore_TC] (site AGGCGGTCTAA) (LTG core: CT, RTG core: TC) | 0.107 |
| AGGCGGTCTTGGGTTCTAACCTGTTGCTTGC [AGGCGGTCTAA_LTGcore_CT_RTGcore_GC] (site AGGCGGTCTAA) (LTG core: CT, RTG core: GC) | 0.784 |
| AGGCGGTCTTGGGTTCTAACCTGTTGCTTGG [AGGCGGTCTAA_LTGcore_CT_RTGcore_CC] (site AGGCGGTCTAA) (LTG core: CT, RTG core: CC) | 0.244 |
| AGGCGGTGATGGGTTCTAACCTGTTGCTTAG [AGGCGGTCTAA_LTGcore_GA_RTGcore_CT] (site AGGCGGTCTAA) (LTG core: GA, RTG core: CT) | 0.09 |
| AGGCGGTGATGGGTTCTAACCTGTTGCTTTC [AGGCGGTCTAA_LTGcore_GA_RTGcore_GA] (site AGGCGGTCTAA) (LTG core: GA, RTG core: GA) | 0.101 |
| AGTCTTAAATGGGTTCTAACCTGTTGCCAAG [AGTCTTACTTG_LTGcore_AA_RTGcore_CT] (site AGTCTTACTTG) (LTG core: AA, RTG core: CT) | 0.182 |
| AGTCTTACTTGGGTTCTAACCTGTTGCCAAC [AGTCTTACTTG_LTGcore_CT_RTGcore_GT] (site AGTCTTACTTG) (LTG core: CT, RTG core: GT) | 0.0371 |
| AGTCTTACTTGGGTTCTAACCTGTTGCCACT [AGTCTTACTTG_LTGcore_CT_RTGcore_AG] (site AGTCTTACTTG) (LTG core: CT, RTG core: AG) | 0.0729 |
| AGTCTTACTTGGGTTCTAACCTGTTGCCAGT [AGTCTTACTTG_LTGcore_CT_RTGcore_AC] (site AGTCTTACTTG) (LTG core: CT, RTG core: AC) | 0.0396 |
| AGTCTTAGTTGGGTTCTAACCTGTTGCCAAC [AGTCTTACTTG_LTGcore_GT_RTGcore_GT] (site AGTCTTACTTG) (LTG core: GT, RTG core: GT) | 0 |
| AGTCTTATGTGGGTTCTAACCTGTTGCCAAG [AGTCTTACTTG_LTGcore_TG_RTGcore_CT] (site AGTCTTACTTG) (LTG core: TG, RTG core: CT) | 0.0537 |
| AGTCTTATGTGGGTTCTAACCTGTTGCCACA [AGTCTTACTTG_LTGcore_TG_RTGcore_TG] (site AGTCTTACTTG) (LTG core: TG, RTG core: TG) | 0.0473 |

| Sequence | recombinant barcode read abundance (log10) |
| --- | --- |
| ATGCTTTAGTGGGTTCTAACCTGTTGCCTCT [ATGCTTTCTAG_LTGcore_AG_RTGcore_AG] (site ATGCTTTCTAG) (LTG core: AG, RTG core: AG) | 0.0908 |
| ATGCTTTATTGGGTTCTAACCTGTTGCCTAT [ATGCTTTCTAG_LTGcore_AT_RTGcore_AT] (site ATGCTTTCTAG) (LTG core: AT, RTG core: AT) | 0.153 |
| ATGCTTTCATGGGTTCTAACCTGTTGCCTAG [ATGCTTTCTAG_LTGcore_CA_RTGcore_CT] (site ATGCTTTCTAG) (LTG core: CA, RTG core: CT) | 0.0483 |
| ATGCTTTCTTGGGTTCTAACCTGTTGCCTCG [ATGCTTTCTAG_LTGcore_CT_RTGcore_CG] (site ATGCTTTCTAG) (LTG core: CT, RTG core: CG) | 0.21 |
| ATGCTTTCTTGGGTTCTAACCTGTTGCCTTA [ATGCTTTCTAG_LTGcore_CT_RTGcore_TA] (site ATGCTTTCTAG) (LTG core: CT, RTG core: TA) | 0.0193 |
| ATGCTTTCTTGGGTTCTAACCTGTTGCCTTT [ATGCTTTCTAG_LTGcore_CT_RTGcore_AA] (site ATGCTTTCTAG) (LTG core: CT, RTG core: AA) | 0.103 |
| ATGCTTTTCTGGGTTCTAACCTGTTGCCTAG [ATGCTTTCTAG_LTGcore_TC_RTGcore_CT] (site ATGCTTTCTAG) (LTG core: TC, RTG core: CT) | 0.439 |
| ATGCTTTTCTGGGTTCTAACCTGTTGCCTGA [ATGCTTTCTAG_LTGcore_TC_RTGcore_TC] (site ATGCTTTCTAG) (LTG core: TC, RTG core: TC) | 0.187 |
| ATGCTTTTTTGGGTTCTAACCTGTTGCCTAG [ATGCTTTCTAG_LTGcore_TT_RTGcore_CT] (site ATGCTTTCTAG) (LTG core: TT, RTG core: CT) | 0.239 |
| ATGTCCCAATGGGTTCTAACCTGTTGCTCAG [ATGTCCCCTGA_LTGcore_AA_RTGcore_CT] (site ATGTCCCCTGA) (LTG core: AA, RTG core: CT) | 0.274 |
| ATGTCCCCTTGGGTTCTAACCTGTTGCTCAA [ATGTCCCCTGA_LTGcore_CT_RTGcore_TT] (site ATGTCCCCTGA) (LTG core: CT, RTG core: TT) | 0.0803 |
| ATGTCCCCTTGGGTTCTAACCTGTTGCTCAG [ATGTCCCCTGA_LTGcore_CT_RTGcore_CT] (site ATGTCCCCTGA) (LTG core: CT, RTG core: CT) | 1.46 |
| ATGTCCCCTTGGGTTCTAACCTGTTGCTCCC [ATGTCCCCTGA_LTGcore_CT_RTGcore_GG] (site ATGTCCCCTGA) (LTG core: CT, RTG core: GG) | 0.175 |
| ATGTCCCCTTGGGTTCTAACCTGTTGCTCGA [ATGTCCCCTGA_LTGcore_CT_RTGcore_TC] (site ATGTCCCCTGA) (LTG core: CT, RTG core: TC) | 0.0646 |
| ATGTCCCCTTGGGTTCTAACCTGTTGCTCTT [ATGTCCCCTGA_LTGcore_CT_RTGcore_AA] (site ATGTCCCCTGA) (LTG core: CT, RTG core: AA) | 0.0454 |
| ATGTCCCGATGGGTTCTAACCTGTTGCTCTC [ATGTCCCCTGA_LTGcore_GA_RTGcore_GA] (site ATGTCCCCTGA) (LTG core: GA, RTG core: GA) | 0.0444 |
| CATATTACGTGGGTTCTAACCTGTTGCCTAG [CATATTACTAG_LTGcore_CG_RTGcore_CT] (site CATATTACTAG) (LTG core: CG, RTG core: CT) | 0.0547 |
